The values below come from US20240270725A1, “MAGL INHIBITORS” (Hoffmann-La Roche Inc., priority 2021, published 2024).

In data set [1] the target is T1, MAGL (Homo sapiens, UniProt Q99685).
T1 sequence (Q99685 1-303): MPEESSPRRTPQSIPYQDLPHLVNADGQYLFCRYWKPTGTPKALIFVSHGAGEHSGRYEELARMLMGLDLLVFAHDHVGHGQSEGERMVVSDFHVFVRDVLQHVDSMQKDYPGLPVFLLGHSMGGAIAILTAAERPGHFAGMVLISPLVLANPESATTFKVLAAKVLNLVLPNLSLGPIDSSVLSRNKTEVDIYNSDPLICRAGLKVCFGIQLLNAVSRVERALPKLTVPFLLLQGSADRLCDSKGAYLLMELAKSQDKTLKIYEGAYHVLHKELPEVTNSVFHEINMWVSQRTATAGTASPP
The data set can be described thus: 2-AG assay, MAGL inhibitory activity (human). The class given is biochemical. On the procedure: (§1) Compounds were profiled for MAGL inhibitory activity by determining the enzymatic activity by following the hydrolysis of the natural substrate, 2-arachidonoylglycerol, resulting in arachidonic acid, which can be followed by mass spectrometry. This assay is hereinafter abbreviated “2-AG assay”.
(§2) A C18 SPE cartridge (G9205A) was used in an acetonitrile/water liquid setup. […] The activity of the compounds was calculated based on the ratio of intensities [arachidonic acid/d8-arachidonic acid].

Data set [2] addresses T2, MAGL (Mus musculus, UniProt O35678).
T2 sequence (O35678 1-303): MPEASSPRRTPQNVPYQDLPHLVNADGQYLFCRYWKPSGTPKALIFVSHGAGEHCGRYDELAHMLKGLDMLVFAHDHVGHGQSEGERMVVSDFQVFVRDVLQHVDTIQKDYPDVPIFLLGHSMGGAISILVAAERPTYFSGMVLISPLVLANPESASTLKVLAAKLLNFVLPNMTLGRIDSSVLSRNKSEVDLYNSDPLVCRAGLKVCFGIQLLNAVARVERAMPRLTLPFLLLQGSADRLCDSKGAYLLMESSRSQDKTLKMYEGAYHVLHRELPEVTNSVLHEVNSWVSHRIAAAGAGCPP
The data set can be described thus: 2-AG assay, MAGL inhibitory activity (mouse). The class given is biochemical. As for the experimental part: as §1, §2

Data set [3] concerns the target T2, MAGL. The data set can be described thus: Drug occupancy study by PET with [^18F]-II. The class given is in vivo. On the procedure: To investigate the utility of [^18F]-II, a drug occupancy study was conducted after validating the in vitro/vivo specificity. The potent and selective covalent MAGL inhibitor PF-06795071, originally developed for anti-inflammatory treatments, was applied for this study (McAllister LA, Butler C R, Mente S, et al. Discovery of Trifluoromethyl Glycol Carbamates as Potent and Selective Covalent Monoacylglycerol Lipase (MAGL) Inhibitors for Treatment of Neuroinflammation. J Med Chem. 2018;61:3008-3026). PF-06795071 was prepared as a transparent solution in a vehicle of DMSO/Cremophor/saline (v/v/v=5/5/90). The animal was treated with escalating doses of PF-06795071 (0.002, 0.01, 0.05, 0.2 and 2 mg/kg) 1 hour prior to the administration of [^18F]-II (4.15-11.13 MBq, 6.84-13.19 nmol/kg). The in vivo PET scans and data reconstruction were carried out as described in Example 9. The SUVs from the whole brain TACs was averaged from 0-90 min to obtain SUV0-90 min in receptor occupancy study as previously detailed by Krämer et al. (Krämer SD, Betzel T, Mu L, et al. Evaluation of ^11C-Me-NB1 as a Potential PET Radioligand for Measuring GluN2B-Containing NMDA Receptors, Drug Occupancy, and Receptor Cross Talk. J Nucl Med. 2018;59:698-703). The non-linear curve was fitted with GraphPad Prism Software (version 8.3.4, GraphPad Software Inc) for D50 value.

The target in data set [4] is T3, MAGL (Rattus norvegicus, UniProt Q8R431).
T3 construct: from tissue; host or cells: Wistar rat brain sections
T3 sequence (Q8R431 1-303): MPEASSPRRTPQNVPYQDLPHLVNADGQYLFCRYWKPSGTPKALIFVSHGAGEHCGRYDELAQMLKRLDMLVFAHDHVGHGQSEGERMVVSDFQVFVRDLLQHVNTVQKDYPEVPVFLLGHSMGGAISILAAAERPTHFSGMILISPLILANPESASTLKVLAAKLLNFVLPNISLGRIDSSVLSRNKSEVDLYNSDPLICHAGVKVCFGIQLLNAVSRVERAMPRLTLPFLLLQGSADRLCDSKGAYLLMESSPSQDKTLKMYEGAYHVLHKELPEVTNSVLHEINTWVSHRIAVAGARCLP
The data set can be described thus: In vitro autoradiography blockade on rat brain section. The class given is binding. To be noted: 10 μM blocker.

Data set [5] relates to MAGL. The experiment in a line: In vivo PET scans in MAGL KO and WT mice. To be noted: mouse brain, at 1 min p.i., intravenous. As for the experimental part: The animal was anesthetized using isoflurane and placed in the PET/CT scanner (Super Argus, Sedecal, Madrid, Spain). The radiotracer was injected intravenously, and data was acquired at 1 min post-injection. The dynamic PET scan lasted 60 min for [^11C]-I, while it's prolonged to 90 min for [^18F]-II and [^18F]-III. […] The regions of interest (ROI) were defined on an MRI T2 (W.Schiffer) template provided by PMOD v4.002 (PMOD Technologies, Zurich, Switzerland) to generate the corresponding time acitivity curves (TACs). The radioactivity accumulations in the whole brain and different regions were expressed as standardized uptake values (SUVs), which is the decay-corrected regional radioactivity normalized to the injected radioactivity and body weight.

Data set [6] concerns MAGL. As for the experimental part:
Frozen brain tissues of Wistar rats or mouse were cut in the thickness of 10 μm on a cryostat (Cryo-Star HM 560 MV; Microm, Thermo Scientific, Wilmington, DE), and stored at −20° C. before use. Before the experiments, the slices were thawed on ice for 10 min and subsequently immersed into aqueous 50 mM Tris buffer (pH 7.4, 30 mM HEPES, 1.2 mM MgCl2, 110 mM NaCl, 5 mM KCl, 2.5 mM CaCl2) containing 3% fatty acid free bovine serum albumin (BSA) at 0° C. for 10 min for precondition. Upon drying, incubation was carried out in a humidified chamber with the radiotracer at room temperature for 30 min. […] The slices were decanted after incubation, and washing procedure was conducted. The slices were left to dry before attaching to phosphor imager plates (Fuji, Dielsdorf, Switzerland), and exposure was lasted for 60 min. The films were later scanned by BAS5000 reader (Fuji), and data analysis was performed using AIDA 4.50.010 software (Raytest Isotopenmessgerate GmbH, Straubenhardt, Germany).

Data set [7] has as its system MAGL. The note with it: reported in Hattori et al., J Med Chem 2019; cited from earlier work.

As to `COc1cccc(-c2ccc(N3C[C@H](N4CCN(C(=O)c5ccco5)CC4)CC3=O)cc2)c1` [I, (R)-4-(4-(Furan-2-carbonyl)piperazin-1-yl)-1-(3′-methoxy-[1,1′-biphenyl]-4-yl)pyrrolidin-2-one], the 50% inhibitory concentration (IC50) in data set [1] stood at 6.5 nM; in data set [2], 4.3 nM.

Turning to `O=C(c1ccco1)N1CCN([C@@H]2CC(=O)N(c3ccc(-c4cccc(F)c4)cc3)C2)CC1` [III, (R)-1-(3′-Fluoro-[1,1′-biphenyl]-4-yl)-4-(4-(furan-2-carbonyl)piperazin-1-yl)pyrrolidin-2-one], the concentration for half-maximal inhibition (IC50) in data set [1] came out at 11.5 nM; in data set [2] it was 11.3 nM.

As for `O=C(O[C@H](CO)C(F)(F)F)N1C[C@@H]2C(c3ccn(-c4ccc(F)cc4)n3)[C@@H]2C1` (stereo partly shown) [PF-06795071], the “effect on [^18F]-II accumulation in the mouse brain” value in data set [3] (0.002 to 2 mg/kg) is “dose-dependent reduction”. The “required dose to occupy 50% MAGL in the mouse brain (D50)” value in data set [3] (given 1 hour prior to [^18F]-II, SUV0-90 min whole brain) was found to be 0.034 mg/kg.

Take `O=C(OC(C(F)(F)F)C(F)(F)F)N1CCC(CNS(=O)(=O)c2ccc(Cl)cc2)CC1` [SAR127303]: the “blockade of specific binding of [^11C]-I” value in data set [4] is “substantial reduction and homogenous distribution of the radioactivity”.

With `[11CH3]Oc1cccc(-c2ccc(N3C[C@H](N4CCN(C(=O)c5ccco5)CC4)CC3=O)cc2)c1` [[^11C]-I, (R)-4-(4-(furan-2-carbonyl)piperazin-1-yl)-1-(3′-(methoxy-^11C)-[1,1′-biphenyl]-4-yl)pyrrolidin-2-one], the “SUVmax (brain uptake)” value in data set [5] is listed as approximately 1.32. Further, the “specificity and selectivity in vitro” value in data set [6] (autoradiography, blockade and MAGL KO brain section) is “high specificity and selectivity”. Besides, in data set [6] (~1 nM radiotracer, mouse or rat brain slice), the “distribution of radioactive signal accumulation on brain slices” value is reported as “heterogeneous distribution of radioactive signal accumulation, which matched to the MAGL expression pattern in rodents”.

With `O=C(c1ccco1)N1CCN([C@@H]2CC(=O)N(c3ccc(-c4cccc([18F])c4)cc3)C2)CC1` [[^18F]-III], the “SUVmax (brain uptake)” value in data set [5] is approximately 1.63.

As to `O=C(c1ccco1)N1CCN([C@@H]2CC(=O)N(c3ccc(-c4ccc([18F])cc4)cc3)C2)CC1` [[^18F]-II], in data set [5], the “SUVmax (brain uptake)” value is listed as approximately 1.56.

As for `Cc1ccnc([18F])c1-c1cccc(N2C[C@H](N3CCN(C(=O)c4nccs4)CC3)CC2=O)c1` [[^18F]T-401, (4R)-1-{3-[2-(^18F)Fluoro-4-methylpyridin-3-yl]phenyl}-4-[4-(1,3-thiazol-2-ylcarbonyl)piperazin-1-yl]pyrrolidin-2-one], in data set [7], the “SUVmax (brain uptake), literature” value is reported as approximately 0.7.
